Reference: ChEMBL document CHEMBL1131189, “Conformationally restricted analogues of 1N,12N-bisethylspermine: synthesis and growth inhibitory effects on human tumor cell lines” (1998)
Each block holds one molecule with its values, some of them ahead of it.

Tests used:
DU-145 [1] = assay: The concentration levels of spermine (SP) evaluated in DU145 cells treated with the compound concentration of 2 uM on third day of treatment.; type: functional, cell-based; conditions: Homo sapiens
DU-145 [2] = assay: The concentration levels of spermidine (SD) evaluated in DU145 cells treated with the compound concentration of 2 uM on third day of treatment; Not quantifiable; type: functional, cell-based; conditions: Homo sapiens
DU-145 [3] = assay: The concentration levels of analogue evaluated in DU145 cells treated with the compound concentration of 0.02 uM on first day of treatment.; type: functional, cell-based; conditions: Homo sapiens
DU-145 [4] = assay: The concentration levels of putrescine (PU) evaluated in DU145 cells treated with the compound concentration of 0.02 uM on first day of treatment.; type: functional, cell-based; conditions: Homo sapiens
DU-145 [5] = assay: The concentration levels of putrescine (PU) evaluated in DU145 cells treated with the compound concentration of 2 uM on third day of treatment; Not quantifiable; type: functional, cell-based; conditions: Homo sapiens
DU-145 [6] = assay: The concentration levels of spermidine (SD) evaluated in DU145 cells treated with the compound concentration of 0.02 uM on third day of treatment.; type: functional, cell-based; conditions: Homo sapiens
DU-145 [7] = assay: The concentration levels of analogue evaluated in DU145 cells treated with the compound concentration of 2 uM on third day of treatment.; type: functional, cell-based; conditions: Homo sapiens
DU-145 [8] = assay: The concentration levels of spermine (SP), evaluated in DU145 cells treated with the compound concentration of 0.02 uM on first day of treatment.; type: functional, cell-based; conditions: Homo sapiens
DU-145 [9] = assay: The concentration levels of spermine (SP), evaluated in DU145 cells treated with the compound concentration of 2 uM on first day of treatment.; type: functional, cell-based; conditions: Homo sapiens
DU-145 [10] = assay: The concentration levels of putrescine (PU) evaluated in DU145 cells treated with the compound concentration of 2 uM on first day of treatment; Not quanitfiable; type: functional, cell-based; conditions: Homo sapiens
DU-145 [11] = assay: The concentration levels of spermidine (SD), evaluated in DU145 cells treated with the compound concentration of 0.02 uM on first day of treatment.; type: functional, cell-based; conditions: Homo sapiens
DU-145 [12] = assay: The concentration levels of analogue evaluated in DU145 cells treated with the compound concentration of 2 uM on first day of treatment.; type: functional, cell-based; conditions: Homo sapiens
DU-145 [13] = assay: The concentration levels of putrescine (PU) evaluated in DU145 cells treated with the compound concentration of 0.02 uM on third day of treatment.; type: functional, cell-based; conditions: Homo sapiens
DU-145 [14] = assay: The concentration levels of spermidine (SD), evaluated in DU145 cells treated with the compound concentration of 2 uM on first day of treatment.; type: functional, cell-based; conditions: Homo sapiens
DU-145 [15] = assay: The concentration levels of spermine (SP) evaluated in DU145 cells treated with the compound concentration of 0.02 uM on third day of treatment.; type: functional, cell-based; conditions: Homo sapiens
DU-145 [16] = assay: The concentration levels of analogue evaluated in DU145 cells treated with the compound concentration of 0.02 uM on third day of treatment.; type: functional, cell-based; conditions: Homo sapiens
U-251 = assay: Growth inhibitory activity was measured for human U251MG NCI tumor cell line.; type: functional; conditions: read-out: ID50 (the source's name)
DU-145 [17] = assay: Growth inhibitory activity was measured for human DU145 tumor cell line.; type: functional; conditions: read-out: ID50 (the source's name)
A549 = assay: Growth inhibitory activity was measured for human A549 tumor cell line.; type: functional; conditions: read-out: ID50 (the source's name)
HT-29 = assay: Growth inhibitory activity was measured for human HT-29 tumor cell line.; type: functional; conditions: Homo sapiens, HT-29; read-out: ID50 (the source's name)
MCF7 = assay: Growth inhibitory activity was measured for human MCF-7 tumor cell line.; type: functional; conditions: read-out: ID50 (the source's name)
PC-3 = assay: Growth inhibitory activity was measured for human PC-3 tumor cell line.; type: functional; conditions: Homo sapiens, PC-3; read-out: ID50 (the source's name)

Structure (SMILES): CCNCCCNCC1CC1CNCCCNCC (stereo in doubt; 9) [listing 1 of 2 here]
Concentration (nM (10e6*cells)-1) (DU-145 [1]): 0.06
Concentration (DU-145 [2]): Not quantifiable
Concentration (nM (10e6*cells)-1) (DU-145 [3]): 0.9
Concentration (nM (10e6*cells)-1) (DU-145 [4]): 0.18
Concentration (DU-145 [5]): Not quantifiable
Concentration (nM (10e6*cells)-1) (DU-145 [6]): 1.01
Concentration (nM (10e6*cells)-1) (DU-145 [7]): 3.97
Concentration (nM (10e6*cells)-1) (DU-145 [8]): 2.16
Concentration (nM (10e6*cells)-1) (DU-145 [9]): 0.4
Concentration (DU-145 [10]): Not quantifiable
Concentration (nM (10e6*cells)-1) (DU-145 [11]): 1.64
Concentration (nM (10e6*cells)-1) (DU-145 [12]): 4.08
Concentration (nM (10e6*cells)-1) (DU-145 [13]): 0.05
Concentration (nM (10e6*cells)-1) (DU-145 [14]): 0.1
Concentration (nM (10e6*cells)-1) (DU-145 [15]): 1.97
Concentration (nM (10e6*cells)-1) (DU-145 [16]): 0.15

IC50 (DU-145 [17]): 0.02 µM
IC50 (A549): 0.12 µM
Structure (SMILES): CCNCCCNCC1CC1CNCCCNCC (stereo in doubt; 9) [listing 2 of 2 here]
IC50 (U-251): 0.1 µM

IC50 (HT-29): 0.43 µM
IC50 (DU-145 [17]; Homo sapiens, DU-145): 0.04 µM
IC50 (A549; Homo sapiens, A549): 0.2 µM
IC50 (MCF7): 0.55 µM
IC50 (PC-3): 0.24 µM
Structure (SMILES): CCNCCCNCCCCNCCCNCC [BIS(ETHYL)SPERMINE]
IC50 (U-251): 0.2 µM
